Key:
[1] = molecular target: T1, human recombinant A1-adenosine receptors (Homo sapiens, UniProt P30542); experiment: Measurement of cAMP enhancement in CHO cells (allosteric enhancement, cAMP content by radioimmunoassay); assay type: cell-based; conditions: CHO:huA1 cells, forskolin 1 μM, rolipram 20 μM, CPA 0.01 nM, 6 min at 36° C., control 100%
T1 construct: expressed in transfected cells; host or cells: CHO (Chinese hamster ovary) cells, CHO:huA1, under G-418 selection
T1 sequence (P30542 1-326): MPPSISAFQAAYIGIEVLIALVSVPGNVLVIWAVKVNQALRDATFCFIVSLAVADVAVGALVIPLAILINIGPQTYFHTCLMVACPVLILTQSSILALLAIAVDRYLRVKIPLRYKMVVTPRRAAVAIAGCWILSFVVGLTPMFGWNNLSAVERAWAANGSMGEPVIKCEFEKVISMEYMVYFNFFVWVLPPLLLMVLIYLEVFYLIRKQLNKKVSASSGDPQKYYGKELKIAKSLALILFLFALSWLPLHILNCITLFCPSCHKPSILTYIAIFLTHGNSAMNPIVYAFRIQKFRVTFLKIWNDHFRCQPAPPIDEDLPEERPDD
Experimental: Chinese hamster ovary cells expressing human recombinant A1-adenosine receptors (CHO:huA1 cells) at a density of approximately 8000 fmol/mg protein were prepared as previously described (Kollias-Baker et al., (1997), J. Pharmacol. Exp. Ther. 281: 761-768) and aliquots of the cells at low passage numbers were frozen and stored in liquid nitrogen. When compounds were tested, an aliquot of CHO:huA1 cells were rapidly thawed after removal from liquid nitrogen, then grown in Ham's F12 culture medium with 10% fetal bovine serum and 0.5 mg/mL of antibiotic G-418 (Shryock, Ozeck, and Belardinelli (1998), Mol. Pharmacol. 53: 886-893). Cells were passaged thrice weekly. Aliquots of cells were placed into 12-well plates with culture medium, serum, and antibiotic for 48 hours, by which time the cells had grown to a confluent monolayer.
Allosteric enhancement was measured as the action of a test compound at different concentrations (0.01, 0.1, 1 and 10 μM) to reduce the cAMP content of CHO:huA1 cells. To initiate an experiment, growth medium was removed from the 12-well plates and cells were washed once with warm Hanks' buffered saline. The wash solution was then removed and replaced with fresh Hanks' solution containing forskolin (1 μM), rolipram (20 μM), N^6-cyclopentyladenosine (CPA, 0.01 nM), adenosine deaminase (2 U/mL), and the test compound. Forskolin was used to stimulate the activity of adenylyl cyclase, rolipram to inhibit cAMP phosphodiesterase, adenosine deaminase to degrade endogenous adenosine, and CPA to cause a small increase of the number of activated adenosine receptors. After 6 min of incubation at 36° C. in the presence of test compound, the incubation solution was removed and hydrochloric acid (final concentration 50 mM) was added to terminate drug action. The content of cAMP in acidified extracts of cells was determined by radioimmunoassay as previously described (Kollias-Baker et al., (1997), J. Pharmacol. Exp. Ther. 281: 761-768). Because the magnitude of the effects of allosteric enhancers on CHO:huA1 cells changed subtly with passage number and differed slightly among different aliquots of cells, the actions of the test compounds and the action of a reference compound (PD 81,723) were assessed in each experiment. The effect of each test compound on cAMP content is presented in the accompanying table as a percentage of the value of cAMP content in the absence of drug (control, 100%). Each value is a mean±standard error of 6 determinations in each of the number of experiments indicated in the “n” column of the table.

## Cc1cccc2c1C(=O)c1c-2csc1N [Example 2, 1-Amino-7-methyl-2-thia-cyclopenta[a]inden-8-one]
other
  melting point: 196 to 198 °C

## Cc1ccc2c(c1)-c1csc(N)c1C2=O [Example 3, 1-Amino-5-methyl-2-thia-cyclopenta[a]inden-8-one]
other
  melting point: 157 to 159 °C

## Nc1scc2c1C(=O)c1c(Cl)cccc1-2 [Example 4, 1-Amino-7-chloro-2-thia-cyclopenta[a]inden-8-one]
other
  melting point: 183 to 185 °C

## Nc1scc2c1C(=O)c1ccc(Cl)cc1-2 [Example 5, 1-Amino-5-chloro-2-thia-cyclopenta[a]inden-8-one]
other
  melting point: 201 to 202 °C

## Nc1scc2c1C(=O)c1c-2ccc(Cl)c1Cl [Example 6, 1-Amino-6,7-dichloro-2-thia-cyclopenta[a]inden-8-one]
other
  melting point: 254 to 255 °C

## Nc1scc2c1C(=O)c1cc(Br)ccc1-2 [Example 21, 1-Amino-6-bromo-2-thia-cyclopenta[a]inden-8-one]
[1]; 0.01 μM test compound
  Change in cAMP Content from Control (Mean ± SEM): −5 ± 4%
[1]; 0.1 μM test compound
  Change in cAMP Content from Control (Mean ± SEM): −15 ± 2%
[1]; 1 μM test compound
  Change in cAMP Content from Control (Mean ± SEM): 4 ± 5%
[1]; 10 μM test compound
  Change in cAMP Content from Control (Mean ± SEM): −16 ± 3%

## Nc1scc2c1C(O)c1ccc(Cl)cc1-2 (stereo not shown) [Example 22, 1-Amino-5-chloro-8-hydroxy-2-thia-cyclopenta[a]indene]
[1]; 0.01 μM test compound
  Change in cAMP Content from Control (Mean ± SEM): 4 ± 2%
[1]; 0.1 μM test compound
  Change in cAMP Content from Control (Mean ± SEM): −1 ± 8%
[1]; 1 μM test compound
  Change in cAMP Content from Control (Mean ± SEM): 0 ± 7%
[1]; 10 μM test compound
  Change in cAMP Content from Control (Mean ± SEM): −17 ± 2%

## CC(=O)Nc1scc2c1C(=O)c1ccc(Cl)cc1-2 [Example 23, 1-Acetylamino-5-chloro-2-thia-cyclopenta[a]inden-8-one]
[1]; 0.01 μM test compound
  Change in cAMP Content from Control (Mean ± SEM): −7 ± 2%
[1]; 0.1 μM test compound
  Change in cAMP Content from Control (Mean ± SEM): 9 ± 9%
[1]; 1 μM test compound
  Change in cAMP Content from Control (Mean ± SEM): −16 ± 3%
[1]; 10 μM test compound
  Change in cAMP Content from Control (Mean ± SEM): −42 ± 1%

## Nc1ccc2c(c1)C(=O)c1c-2csc1N [Example 24, 1,6-Diamino-2-thia-cyclopenta[a]inden-8-one]
[1]; 0.01 μM test compound
  Change in cAMP Content from Control (Mean ± SEM): 5 ± 3%
[1]; 0.1 μM test compound
  Change in cAMP Content from Control (Mean ± SEM): 5 ± 3%
[1]; 1 μM test compound
  Change in cAMP Content from Control (Mean ± SEM): −1 ± 1%
[1]; 10 μM test compound
  Change in cAMP Content from Control (Mean ± SEM): −23 ± 6%

## Nc1scc2c1C(=O)c1ccc(Cl)c(Cl)c1-2 [Example 25, 1-Amino-4,5-dichloro-2-thia-cyclopenta[a]inden-8-one]
[1]; 0.01 μM test compound
  Change in cAMP Content from Control (Mean ± SEM): 0 ± 5%
[1]; 0.1 μM test compound
  Change in cAMP Content from Control (Mean ± SEM): −9 ± 8%
[1]; 1 μM test compound
  Change in cAMP Content from Control (Mean ± SEM): −46 ± 2%
[1]; 10 μM test compound
  Change in cAMP Content from Control (Mean ± SEM): −75 ± 3%

## Nc1sc2c3c1C(=O)c1ccc(Cl)cc1C3CN(Cc1ccccc1)C2 (stereo not shown) [Example 26, 5-Amino-2-benzyl-9-chloro-1,2,3,10b-tetrahydro-6H-benzo[h]thieno[2,3,4-de]isoquinolin-6-one]
[1]; 0.01 μM test compound
  Change in cAMP Content from Control (Mean ± SEM): −4 ± 1%
[1]; 0.1 μM test compound
  Change in cAMP Content from Control (Mean ± SEM): −1 ± 7%
[1]; 1 μM test compound
  Change in cAMP Content from Control (Mean ± SEM): 15 ± 6%
[1]; 10 μM test compound
  Change in cAMP Content from Control (Mean ± SEM): 25 ± 7%

## Nc1scc2c1C(=O)c1c(Cl)cccc1C21SCCCS1 [Example 27, 3-Amino-5-chloro-9-spiro(1,3-dithian-2-yl)-9H-naphtho[2,3-c]thiophene-4-one]
[1]; 0.01 μM test compound
  Change in cAMP Content from Control (Mean ± SEM): 6 ± 3%
[1]; 0.1 μM test compound
  Change in cAMP Content from Control (Mean ± SEM): 8 ± 5%
[1]; 1 μM test compound
  Change in cAMP Content from Control (Mean ± SEM): 8 ± 9%
[1]; 10 μM test compound
  Change in cAMP Content from Control (Mean ± SEM): 0 ± 9%

## Cc1sc(N)c(C(=O)c2cccc(C(F)(F)F)c2)c1C [PD 81,72, reference compound]
[1]; 0.01 μM test compound
  Change in cAMP Content from Control (Mean ± SEM): 4 ± 2%
[1]; 0.1 μM test compound
  Change in cAMP Content from Control (Mean ± SEM): 8 ± 3%
[1]; 1 μM test compound
  Change in cAMP Content from Control (Mean ± SEM): −32 ± 2%
[1]; 10 μM test compound
  Change in cAMP Content from Control (Mean ± SEM): −75 ± 1%
